Reference: article PMC7287031 (Pharmacology Research & Perspectives, 2020)
Read-outs that look alike come from different tables or passages of the source.

How the values were obtained:
[1] = test system: human liver microsomes; test: Enzyme kinetics of total oxidative metabolism in pooled human liver microsomes; format: in vitro ADME; settings: pooled HLM, Michaelis-Menten model
Protocol: (§1) In vitro incubations were carried out in 100‐mM potassium phosphate buffer (pH 7.4) and 5‐mM MgCl2 with a total volume of 200 µL. Substrate and either human liver microsomes (HLM, BD Biosciences, mixed gender pool of n = 50) or recombinant human enzymes (BD Biosciences) were added and pre‐incubated for 3 minutes at 37°C. The reaction was started by addition of a fresh solution of NADPH (1 mmol/L final concentration). The samples were incubated at 37°C with agitation of 500 rpm. For incubations with CYP2A6, CYP2C9, CYP2C18, and CYP4A11, the phosphate buffer was replaced by TRIS buffer (100 mmol/L, pH 7.4) and for flavin‐containing monooxygenases (FMOs), a glycine buffer (50 mM, pH 9.5) was used.
(§2) The enzymatic reaction was stopped and the protein was precipitated by addition of an equal volume of methanol. After 30 min at −80°C, the samples were centrifuged at 30'000 x g for 15 min. The supernatant was withdrawn. Aliquots were analyzed by LSC and the supernatant was diluted with water to obtain a final solution containing less than 20% of the organic solvent. […] Samples were analyzed by HPLC combined with radiodetection.
(§3) Km and Vmax parameters were calculated by using SigmaPlot Version 8.0, Enzyme Kinetics module Version 1.1 software (SPSS Science Inc, Chicago, IL, USA). The intrinsic clearance was calculated by the equation: CLint = Vmax/Km.

[2] = as above; format: in vitro ADME; settings: both sexes, human, pooled human liver microsomes, pH 7.4; pooled HLM, Michaelis-Menten model
Protocol: as §1, §2, §3

[3] = Rat milk excretion study; format: in vivo; settings: female, milk (relative to plasma), lactating rats, read-out: milk exposure (AUCinf) relative to plasma exposure
Protocol: Metabolite profiling was conducted on plasma, urine, bile, and feces samples in the rat and dog ADME studies, and further metabolite profiling on plasma and milk was conducted in a dedicated rat milk excretion study.
Plasma samples obtained from these studies were extracted with equal volumes of acetonitrile. Additional extractions of the protein pellet with acetonitrile and/or acetone were conducted as needed to maximize radioactivity recovery. Feces samples were initially extracted with two to four volumes of acetonitrile. Additional extractions of the pellet following centrifugation and removal of supernatant were conducted with acetonitrile and/or acetone as needed to maximize radioactivity recovery. Urine and bile samples were analyzed directly following centrifugation. Radioactivity recoveries following the centrifugation step were measured by LSC. Milk samples were extracted with two volumes of acetonitrile, following centrifugation and removal of supernatant, the pellets were re‐suspended in 100 µL of water and re‐extracted with 200 µL acetonitrile.

[4] = Human ADME study: PK of ribociclib and LEQ803 in plasma and urine (validated bioanalytical assay); format: in vivo; settings: for AUC(0-inf) / AUC(0-t) / Cmax / half-life: plasma, po, 600 mg
Protocol: Subjects continued to fast for 4 hours after drug administration.
Plasma aliquots at each time point were subjected to protein precipitation with three volumes of acetonitrile containing 0.1% (v:v) formic acid, followed by dilution and analysis by liquid chromatography‐tandem mass spectrometry in selected reaction monitor‐positive ion mode using heated electrospray ionization as the ionization technique. For urine aliquots, six volumes of acetonitrile containing 0.1% (v:v) formic acid were added, followed by dilution and analysis in the same way as for plasma. Components were separated using a YMC‐Triart C18 (2.0 x 30 mm, 1.9 µm) column (YMC Co. Ltd.). […] Mobile phase A was 0.1% formic acid in H2O while mobile phase B was 0.1% formic acid in ACN:Isopropanol 8:2 v:v.

[5] = In vitro plasma protein binding (ultrafiltration), dog; format: in vitro ADME; settings: 100 and 1000 ng/mL
Protocol: (§4) Stock solutions were spiked into plasma to achieve the intended concentrations. After incubation for 1 hour at 37°C under constant gentle agitation, the spiked plasma samples (n = 3) were centrifuged (2000 g, 10 min, 37°C) in pre‐warmed Centrifree devices. Total radioactivity was determined in the ultrafiltrate (Cu, concentration of unbound compound) and in the sample introduced into the reservoir before ultrafiltration (Cp). The unbound (fu) and the bound (fb) fraction in plasma were calculated as follows: fu (%) = Cu/Cp × 100; fb (%) = 100‐Fu (%).

[6] = Rat pharmacokinetic studies: plasma PK of ribociclib after single i.v. or oral dose; format: in vivo; settings: for Vd: read-out: Vss; for half-life: read-out: t½ (converted)
Protocol: ADME studies (including QWBA in pigmented and non‐pigmented rats) using radiolabeled ribociclib were conducted in rat and dog. Relevant institutional and national guides for the care and use of laboratory animals were followed. […]

[7] = Integrated estimation of ribociclib elimination pathways in humans; parameters: species or system human
[8] = In vitro plasma protein binding (ultrafiltration), rat; format: in vitro ADME; settings: 100 and 1000 ng/mL
Protocol: as §4

[9] = female, Hanover Wistar, iv, rat f (3), i.v., 4.2 mg base/kg
[10] = female, rat f (3), po, 11.1 mg base/kg
[11] = female, rat f (4), po, 51.2 mg base/kg
[12] = male, Hanover Wistar, rat m (3), po, 9.8 mg base/kg
[13] = male, Sprague Dawley, 5 mg/kg, rat m (3), po, 5.0 mg base/kg
[14] = male, Sprague Dawley, iv, 2 mg/kg, rat m (2), i.v., 2.0 mg base/kg
[15] = human estimate based on rat ADME data

CN(C)C(=O)c1cc2cnc(Nc3ccc(N4CCNCC4)cn3)nc2n1C1CCCC1 [ribociclib, Ribociclib]
Vmax, total metabolism [1]: 766 ± 13 pmol/min/mg | Km [2]: 29.1 ± 1.8 µM | Kp [3]: 3.6 | Ribociclib in urine by validated bioanalytical assay ([4]; human): 6.75 % of the dose | renal clearance lower than non-renal clearance ([4]; human): more than 10 fold | Tmax ([4]; human plasma, bioanalytical assay, single oral 600 mg, N=6, read-out: tmax, median (range)): 1.75 h | AUC(0-inf) ([4]; human, human plasma, bioanalytical assay, single oral 600 mg, N=6, read-out: AUCinf, arithmetic mean (CV %)): 8700 ng·h/mL | AUC(0-inf) ([4]; human, human plasma, bioanalytical assay, single oral 600 mg, N=6, read-out: AUCinf, median): 8880 ng·h/mL | AUC(0-t) ([4]; human, human plasma, bioanalytical assay, single oral 600 mg, N=6, read-out: AUClast, arithmetic mean (CV %)): 8600 ng·h/mL | AUC(0-t) ([4]; human, human plasma, bioanalytical assay, single oral 600 mg, N=6, read-out: AUClast, median): 8780 ng·h/mL | Cmax ([4]; human, human plasma, bioanalytical assay, single oral 600 mg, N=6, read-out: Cmax, arithmetic mean (CV %)): 507 ng/mL | Cmax ([4]; human, human plasma, bioanalytical assay, single oral 600 mg, N=6, read-out: Cmax, median): 518 ng/mL | half-life ([4]; human, human plasma, bioanalytical assay, single oral 600 mg, N=6, read-out: t½, arithmetic mean (CV %) (converted)): 54.7 h | half-life ([4]; human, human plasma, bioanalytical assay, single oral 600 mg, N=6, read-out: t½, median (converted)): 49.4 h | CL/F, median ([4]; human, single oral 600 mg): 70.2 L/h | CL renal ([4]; male, plasma and urine, human, single oral 600 mg, read-out: renal clearance, median (converted)): 92.5 mL/min | fraction unbound at 1 h [5]: 0.34 ± 0.01 | Vd [6, 9]: 12.2 L/kg | half-life [6, 9]: 1.9 h | AUC(0-t) ([6]; female, Hanover Wistar, rat, iv, 4.2 mg base/kg): 508 ng·h/mL | clearance ([6]; female, iv, rat f (3), 4.2 mg base/kg): 130 mL/min/kg | Cmax [6, 10]: 59.1 ng/mL | Tmax [6, 10]: 2 h | AUC(0-t) ([6]; female, rat f (3), po, 11.1 mg base/kg, AUC interval 24 h): 360 ng·h/mL | Cmax [6, 11]: 1090 ng/mL | Tmax [6, 11]: 0.3 h | half-life [6, 11]: 2 h | AUC(0-t) ([6]; female, rat, po, 51.2 mg base/kg): 3100 ng·h/mL | clearance ([6]; male, Hanover Wistar, iv, rat m (3), 4.1 mg base/kg): 46.7 mL/min/kg | half-life ([6]; male, Hanover Wistar, iv, rat m (3), i.v., 4.1 mg base/kg): 3.2 h | Cmax [6, 12]: 130 ng/mL | Tmax [6, 12]: 4 h | AUC(0-t) ([6]; male, Hanover Wistar, rat m (3), po, 9.8 mg base/kg, AUC interval 24 h): 1340 ng·h/mL | AUC(0-t) ([6]; male, Hanover Wistar, rat, iv, 4.1 mg base/kg): 1440 ng·h/mL | Cmax [6, 13]: 126 ng/mL | Tmax [6, 13]: 2 h | bioavailability [6, 13]: 55% | Vd [6, 14]: 9.9 L/kg | half-life [6, 14]: 2.8 h | AUC(0-t) ([6]; male, Sprague Dawley, rat, iv, 2 mg/kg): 587 ng·h/mL | AUC(0-t) ([6]; male, Sprague Dawley, rat, po, 5 mg/kg): 672 ng·h/mL | clearance ([6]; male, iv, rat m (2), 2.0 mg base/kg): 51.7 mL/min/kg | Vd ([6]; male, iv, rat m (3), i.v., 4.1 mg base/kg): 7.9 L/kg | bioavailability ([6]; male, rat m (3), po, 9.8 mg base/kg): 37% | biliary elimination, share of total [7, 15]: 1% | elimination by intestinal excretion/secretion, share of total [7, 15]: 8% | elimination by hepatic metabolism, share of total ([7]; human, integrated estimate): approx. 84% | elimination by renal excretion, share of total ([7]; human, integrated estimate): 7% | fraction unbound at 1 h [8]: 0.2 ± 0.01
